Laboratory results: the CheMixHub viscosity set
± gives the uncertainty stated by the source.

Test: xn = mol fraction of the nth substance listed

CCCCN(CCCC)CCCC + CO
viscosity [mPa·s], 101.33 kPa
Settings | 298.15 K | 303.15 K | 308.15 K | 313.15 K | 318.15 K | 323.15 K
x1 = 0.1015 | – | 0.881 ± 0.053 | – | 0.778 ± 0.047 | – | 0.675 ± 0.041
x1 = 0.1093 | 1.013 ± 0.061 | – | 0.889 ± 0.054 | – | 0.735 ± 0.044 | –
x1 = 0.1551 | – | 1.008 ± 0.061 | – | 0.896 ± 0.054 | – | 0.787 ± 0.048
x1 = 0.2027 | 1.21 ± 0.073 | – | 1.07 ± 0.065 | – | 0.919 ± 0.056 | –
x1 = 0.2166 | – | 1.106 ± 0.067 | – | 0.994 ± 0.06 | – | 0.895 ± 0.054
x1 = 0.256 | 1.278 ± 0.077 | – | 1.132 ± 0.068 | – | 0.992 ± 0.06 | –
x1 = 0.2933 | – | 1.177 ± 0.071 | – | 1.068 ± 0.065 | – | 0.984 ± 0.059
x1 = 0.3035 | 1.319 ± 0.08 | – | 1.169 ± 0.071 | – | 1.036 ± 0.063 | –
x1 = 0.3493 | – | 1.208 ± 0.073 | – | 1.101 ± 0.067 | – | 1.027 ± 0.062
x1 = 0.362 | 1.353 ± 0.082 | – | 1.197 ± 0.072 | – | 1.066 ± 0.064 | –
x1 = 0.404 | 1.369 ± 0.083 | – | 1.208 ± 0.073 | – | 1.073 ± 0.065 | –
x1 = 0.4195 | – | 1.228 ± 0.074 | – | 1.12 ± 0.068 | – | 1.044 ± 0.063
x1 = 0.4528 | 1.383 ± 0.084 | – | 1.215 ± 0.073 | – | 1.07 ± 0.065 | –
x1 = 0.4998 | – | 1.235 ± 0.075 | – | 1.118 ± 0.068 | – | 1.03 ± 0.062
x1 = 0.5101 | 1.394 ± 0.084 | – | 1.216 ± 0.073 | – | 1.054 ± 0.064 | –
x1 = 0.5426 | – | 1.235 ± 0.075 | – | 1.108 ± 0.067 | – | 1.011 ± 0.061
x1 = 0.5541 | 1.4 ± 0.085 | – | 1.213 ± 0.073 | – | 1.036 ± 0.063 | –
x1 = 0.604 | 1.404 ± 0.085 | – | 1.208 ± 0.073 | – | 1.014 ± 0.061 | –
x1 = 0.6175 | – | 1.232 ± 0.074 | – | 1.093 ± 0.066 | – | 0.974 ± 0.059
x1 = 0.6459 | – | 1.233 ± 0.075 | – | 1.085 ± 0.066 | – | 0.961 ± 0.058
x1 = 0.6609 | 1.408 ± 0.085 | – | 1.2 ± 0.073 | – | 0.989 ± 0.06 | –
x1 = 0.6925 | 1.409 ± 0.085 | – | 1.194 ± 0.072 | – | 0.977 ± 0.059 | –
x1 = 0.7057 | – | 1.224 ± 0.074 | – | 1.069 ± 0.065 | – | 0.932 ± 0.056
x1 = 0.7264 | 1.409 ± 0.085 | – | 1.188 ± 0.072 | – | 0.966 ± 0.058 | –
x1 = 0.763 | – | 1.217 ± 0.074 | – | 1.052 ± 0.064 | – | 0.911 ± 0.055
x1 = 0.8027 | 1.405 ± 0.085 | – | 1.172 ± 0.071 | – | 0.95 ± 0.057 | –
x1 = 0.8237 | – | 1.205 ± 0.073 | – | 1.039 ± 0.063 | – | 0.897 ± 0.054
x1 = 0.8877 | – | 1.19 ± 0.072 | – | 1.022 ± 0.062 | – | 0.885 ± 0.053
x1 = 0.8925 | 1.395 ± 0.084 | – | 1.151 ± 0.07 | – | 0.941 ± 0.057 | –
x1 = 0.9438 | – | 1.178 ± 0.071 | – | 1.011 ± 0.061 | – | 0.873 ± 0.053

CCCCN(CCCC)CCCC + CCCO
viscosity [mPa·s]
Settings | 298.15 K | 303.15 K | 308.15 K | 313.15 K | 318.15 K | 323.15 K
101.3 kPa, x1 = 0.0929 | – | 1.75 ± 0.021 | – | 1.364 ± 0.017 | – | –
101.3 kPa, x1 = 0.1877 | – | 1.712 ± 0.02 | – | 1.328 ± 0.016 | – | –
101.3 kPa, x1 = 0.2897 | – | – | – | 1.289 ± 0.016 | – | –
101.3 kPa, x1 = 0.3991 | – | 1.605 ± 0.019 | – | 1.245 ± 0.015 | – | –
101.3 kPa, x1 = 0.5176 | – | 1.529 ± 0.018 | – | – | – | –
101.3 kPa, x1 = 0.616 | – | 1.462 ± 0.017 | – | – | – | –
101.3 kPa, x1 = 0.7064 | – | 1.392 ± 0.017 | – | – | – | –
101.3 kPa, x1 = 0.8055 | – | 1.307 ± 0.016 | – | – | – | –
101.3 kPa, x1 = 0.8864 | – | 1.252 ± 0.015 | – | – | – | –
101.33 kPa, x1 = 0.0994 | – | – | – | 1.412 ± 0.085 | – | 1.318 ± 0.08
101.33 kPa, x1 = 0.1089 | 1.974 ± 0.12 | – | 1.622 ± 0.098 | – | 1.465 ± 0.089 | –
101.33 kPa, x1 = 0.1447 | – | 1.7 ± 0.1 | – | 1.398 ± 0.085 | – | 1.343 ± 0.081
101.33 kPa, x1 = 0.1916 | – | – | – | 1.375 ± 0.083 | – | 1.342 ± 0.081
101.33 kPa, x1 = 0.2045 | 1.895 ± 0.12 | – | 1.558 ± 0.094 | – | 1.436 ± 0.087 | –
101.33 kPa, x1 = 0.2539 | 1.845 ± 0.11 | 1.603 ± 0.097 | 1.519 ± 0.092 | 1.34 ± 0.081 | 1.403 ± 0.085 | 1.315 ± 0.079
101.33 kPa, x1 = 0.3026 | 1.795 ± 0.11 | 1.558 ± 0.094 | 1.481 ± 0.09 | 1.308 ± 0.079 | 1.366 ± 0.083 | 1.283 ± 0.078
101.33 kPa, x1 = 0.3485 | – | 1.517 ± 0.092 | – | 1.277 ± 0.077 | – | 1.247 ± 0.075
101.33 kPa, x1 = 0.3584 | 1.739 ± 0.11 | – | 1.437 ± 0.087 | – | 1.32 ± 0.08 | –
101.33 kPa, x1 = 0.4003 | 1.7 ± 0.1 | 1.473 ± 0.089 | 1.407 ± 0.085 | 1.244 ± 0.075 | 1.286 ± 0.078 | 1.206 ± 0.073
101.33 kPa, x1 = 0.4469 | 1.66 ± 0.1 | 1.436 ± 0.087 | 1.375 ± 0.083 | 1.216 ± 0.074 | 1.249 ± 0.076 | 1.17 ± 0.071
101.33 kPa, x1 = 0.4987 | 1.619 ± 0.098 | 1.4 ± 0.085 | 1.342 ± 0.081 | 1.187 ± 0.072 | 1.211 ± 0.073 | 1.133 ± 0.068
101.33 kPa, x1 = 0.5417 | – | 1.372 ± 0.083 | – | 1.165 ± 0.07 | – | 1.104 ± 0.067
101.33 kPa, x1 = 0.5569 | 1.58 ± 0.096 | – | 1.309 ± 0.079 | – | 1.171 ± 0.071 | –
101.33 kPa, x1 = 0.6053 | 1.551 ± 0.094 | 1.335 ± 0.081 | 1.284 ± 0.078 | 1.136 ± 0.069 | 1.14 ± 0.069 | 1.065 ± 0.064
101.33 kPa, x1 = 0.6587 | 1.523 ± 0.092 | – | 1.259 ± 0.076 | – | 1.108 ± 0.067 | –
101.33 kPa, x1 = 0.6973 | 1.504 ± 0.091 | 1.289 ± 0.078 | 1.242 ± 0.075 | 1.098 ± 0.066 | 1.085 ± 0.066 | 1.012 ± 0.061
101.33 kPa, x1 = 0.7606 | 1.474 ± 0.089 | – | 1.216 ± 0.074 | – | 1.047 ± 0.063 | –
101.33 kPa, x1 = 0.7832 | – | 1.251 ± 0.076 | – | 1.066 ± 0.064 | – | 0.962 ± 0.058
101.33 kPa, x1 = 0.8067 | 1.454 ± 0.088 | – | 1.197 ± 0.072 | – | 1.02 ± 0.062 | –
101.33 kPa, x1 = 0.9104 | 1.409 ± 0.085 | – | 1.156 ± 0.07 | – | 0.959 ± 0.058 | –
101.33 kPa, x1 = 0.9361 | – | 1.189 ± 0.072 | – | 1.013 ± 0.061 | – | 0.873 ± 0.053
101.33 kPa, x1 = 0.9688 | – | 1.177 ± 0.071 | – | 1.004 ± 0.061 | – | 0.858 ± 0.052
